# Data taken from PubChem BioAssay AID2060512 (Molecular Pharmacology Branch, DTP, NCI, 2025).
# System: 186277-243-T-J2-PDC complex spheroid viability
# Experiment: Anticancer human tumor 186277-243-T-J2-PDC patient-derived colon adenocarcinoma cell line growth inhibition [GQUAD]
# Details: for IC50: curve of first compound; for viability, T/C: stronger effect = lower value
# How it was run: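 Viability of tumor cells grown as complex spheroids with endothelial and stromal cells, exposed to drug combinations. Top concentration at or near clinical Cmax (else 10 microM), diluted in half-log increments.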
# [1] = second compound 0.0316 µM, first compound 0.0316 µM
# [2] = second compound 0.0316 µM, first compound 0.1 µM
# [3] = second compound 0.0316 µM, first compound 0.316 µM
# [4] = second compound 0.0316 µM, first compound 1 µM
# [5] = second compound 0.0316 µM, first compound 3.16 µM
# [6] = second compound 0.0316 µM, first compound 10 µM
# [7] = second compound 0.1 µM, first compound 0.0316 µM
# [8] = second compound 0.1 µM, first compound 0.1 µM
# [9] = second compound 0.1 µM, first compound 0.316 µM
# [10] = second compound 0.1 µM, first compound 1 µM
# [11] = second compound 0.1 µM, first compound 3.16 µM
# [12] = second compound 0.1 µM, first compound 10 µM
# [13] = second compound 0.316 µM, first compound 0.0316 µM
# [14] = second compound 0.316 µM, first compound 0.1 µM
# [15] = second compound 0.316 µM, first compound 0.316 µM
# [16] = second compound 0.316 µM, first compound 1 µM
# [17] = second compound 0.316 µM, first compound 3.16 µM
# [18] = second compound 0.316 µM, first compound 10 µM
# [19] = second compound 1 µM, first compound 0.0316 µM
# [20] = second compound 1 µM, first compound 0.1 µM
# [21] = second compound 1 µM, first compound 0.316 µM
# [22] = second compound 1 µM, first compound 1 µM
# [23] = second compound 1 µM, first compound 3.16 µM
# [24] = second compound 1 µM, first compound 10 µM
# [25] = second compound 3.16 µM, first compound 0.0316 µM
# [26] = second compound 3.16 µM, first compound 0.1 µM
# [27] = second compound 3.16 µM, first compound 0.316 µM
# [28] = second compound 3.16 µM, first compound 1 µM
# [29] = second compound 3.16 µM, first compound 3.16 µM
# [30] = second compound 3.16 µM, first compound 10 µM
# [31] = second compound 10 µM, first compound 0.0316 µM
# [32] = second compound 10 µM, first compound 0.1 µM
# [33] = second compound 10 µM, first compound 0.316 µM
# [34] = second compound 10 µM, first compound 1 µM
# [35] = second compound 10 µM, first compound 3.16 µM
# [36] = second compound 10 µM, first compound 10 µM
# 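Wherever viability, T/C is given: 100% = DMSO vehicle control viability.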
compound,measurement,setting,value
O=C(NO)c1cnc(N2CCN(S(=O)(=O)c3ccc4ccccc4c3)CC2)nc1 + CN(C)c1ccc(Nc2c3ccc(NC(=O)CCN4CCCC4)cc3nc3cc(NC(=O)CCN4CCCC4)ccc23)cc1,IC50,second compound 0.0316 µM,171 nM
same,IC50,second compound 0.1 µM,176 nM
same,IC50,second compound 0.316 µM,182 nM
same,IC50,second compound 1 µM,176 nM
same,IC50,second compound 3.16 µM,183 nM
same,IC50,second compound 10 µM,183 nM
same,"viability, T/C",[1],103%
same,"viability, T/C",[2],87%
same,"viability, T/C",[3],7.72%
same,"viability, T/C",[4],0.27%
same,"viability, T/C",[5],0.26%
same,"viability, T/C",[6],0.18%
same,"viability, T/C",[7],90.1%
same,"viability, T/C",[8],91.3%
same,"viability, T/C",[9],7.71%
same,"viability, T/C",[10],0.23%
same,"viability, T/C",[11],0.14%
same,"viability, T/C",[12],0.15%
same,"viability, T/C",[13],105%
same,"viability, T/C",[14],94.8%
same,"viability, T/C",[15],8.34%
same,"viability, T/C",[16],0.23%
same,"viability, T/C",[17],0.12%
same,"viability, T/C",[18],0.13%
same,"viability, T/C",[19],92.1%
same,"viability, T/C",[20],90.8%
same,"viability, T/C",[21],7.85%
same,"viability, T/C",[22],0.24%
same,"viability, T/C",[23],0.13%
same,"viability, T/C",[24],0.13%
same,"viability, T/C",[25],104%
same,"viability, T/C",[26],94.2%
same,"viability, T/C",[27],9.96%
same,"viability, T/C",[28],0.26%
same,"viability, T/C",[29],0.16%
same,"viability, T/C",[30],0.15%
same,"viability, T/C",[31],92.5%
same,"viability, T/C",[32],101%
same,"viability, T/C",[33],7.98%
same,"viability, T/C",[34],0.3%
same,"viability, T/C",[35],0.21%
same,"viability, T/C",[36],0.19%
CC1COCCN1c1cc(-c2ccnn2C)c2ccnc(-c3ccn[nH]3)c2n1 (stereo not drawn) + Cc1[nH]c2ccc(F)cc2c1-c1nc2c3cccnc3c3ncccc3c2[nH]1,IC50,second compound 0.0316 µM,50.5 nM
same,IC50,second compound 0.1 µM,48.5 nM
same,IC50,second compound 0.316 µM,50.6 nM
same,IC50,second compound 1 µM,< 31.6 nM
same,IC50,second compound 3.16 µM,40.4 nM
same,IC50,second compound 10 µM,33.6 nM
same,"viability, T/C",[1],74.1%
same,"viability, T/C",[2],15%
same,"viability, T/C",[3],7.54%
same,"viability, T/C",[4],5%
same,"viability, T/C",[5],5.42%
same,"viability, T/C",[6],5.79%
same,"viability, T/C",[7],70.8%
same,"viability, T/C",[8],15%
same,"viability, T/C",[9],8.57%
same,"viability, T/C",[10],5.57%
same,"viability, T/C",[11],6.67%
same,"viability, T/C",[12],6.18%
same,"viability, T/C",[13],72.2%
same,"viability, T/C",[14],17.8%
same,"viability, T/C",[15],7.48%
same,"viability, T/C",[16],5.56%
same,"viability, T/C",[17],6.42%
same,"viability, T/C",[18],6.89%
same,"viability, T/C",[19],49%
same,"viability, T/C",[20],13.3%
same,"viability, T/C",[21],6.83%
same,"viability, T/C",[22],5.52%
same,"viability, T/C",[23],7.58%
same,"viability, T/C",[24],7.98%
same,"viability, T/C",[25],59.7%
same,"viability, T/C",[26],13.9%
same,"viability, T/C",[27],7.5%
same,"viability, T/C",[28],6.04%
same,"viability, T/C",[29],7.48%
same,"viability, T/C",[30],7.66%
same,"viability, T/C",[31],52.1%
same,"viability, T/C",[32],11.5%
same,"viability, T/C",[33],8.02%
same,"viability, T/C",[34],5.7%
same,"viability, T/C",[35],5.81%
same,"viability, T/C",[36],6.85%
CC1COCCN1c1cc(C2(S(C)(=N)=O)CC2)nc(-c2ccnc3[nH]ccc23)n1 (stereo not drawn) + Cc1[nH]c2ccc(F)cc2c1-c1nc2c3cccnc3c3ncccc3c2[nH]1,IC50,second compound 0.0316 µM,791 nM
same,IC50,second compound 0.1 µM,839 nM
same,IC50,second compound 0.316 µM,1210 nM
same,IC50,second compound 1 µM,1600 nM
same,IC50,second compound 3.16 µM,1140 nM
same,IC50,second compound 10 µM,1210 nM
same,"viability, T/C",[1],109%
same,"viability, T/C",[2],104%
same,"viability, T/C",[3],105%
same,"viability, T/C",[4],35.6%
same,"viability, T/C",[5],11.1%
same,"viability, T/C",[6],10.7%
same,"viability, T/C",[7],109%
same,"viability, T/C",[8],88.3%
same,"viability, T/C",[9],87.7%
same,"viability, T/C",[10],42.6%
same,"viability, T/C",[11],13.2%
same,"viability, T/C",[12],4.44%
same,"viability, T/C",[13],87.7%
same,"viability, T/C",[14],89.4%
same,"viability, T/C",[15],117%
same,"viability, T/C",[16],58.1%
same,"viability, T/C",[17],10.9%
same,"viability, T/C",[18],8.17%
same,"viability, T/C",[19],91.1%
same,"viability, T/C",[20],85.8%
same,"viability, T/C",[21],101%
same,"viability, T/C",[22],74.2%
same,"viability, T/C",[23],15%
same,"viability, T/C",[24],8.18%
same,"viability, T/C",[25],102%
same,"viability, T/C",[26],92.4%
same,"viability, T/C",[27],97.5%
same,"viability, T/C",[28],53.5%
same,"viability, T/C",[29],16.3%
same,"viability, T/C",[30],7.22%
same,"viability, T/C",[31],90.1%
same,"viability, T/C",[32],98.2%
same,"viability, T/C",[33],96.9%
same,"viability, T/C",[34],57.2%
same,"viability, T/C",[35],12.8%
same,"viability, T/C",[36],6.82%
COc1ccc([C@@H](O)c2cc(-c3ncnc4cc(N5CCOCC5)ccc34)c(F)cc2Cl)nn1 + Cc1[nH]c2ccc(F)cc2c1-c1nc2c3cccnc3c3ncccc3c2[nH]1,IC50,second compound 0.0316 µM,4920 nM
same,IC50,second compound 0.1 µM,6890 nM
same,IC50,second compound 0.316 µM,6470 nM
same,IC50,second compound 1 µM,5920 nM
same,IC50,second compound 3.16 µM,4990 nM
same,IC50,second compound 10 µM,5740 nM
same,"viability, T/C",[1],95.7%
same,"viability, T/C",[2],101%
same,"viability, T/C",[3],97.2%
same,"viability, T/C",[4],80.9%
same,"viability, T/C",[5],66.3%
same,"viability, T/C",[6],25.9%
same,"viability, T/C",[7],94.5%
same,"viability, T/C",[8],89.9%
same,"viability, T/C",[9],104%
same,"viability, T/C",[10],99.5%
same,"viability, T/C",[11],85.2%
same,"viability, T/C",[12],33.1%
same,"viability, T/C",[13],105%
same,"viability, T/C",[14],94.8%
same,"viability, T/C",[15],103%
same,"viability, T/C",[16],106%
same,"viability, T/C",[17],81.5%
same,"viability, T/C",[18],30.9%
same,"viability, T/C",[19],89.2%
same,"viability, T/C",[20],90%
same,"viability, T/C",[21],115%
same,"viability, T/C",[22],102%
same,"viability, T/C",[23],71.2%
same,"viability, T/C",[24],32.4%
same,"viability, T/C",[25],93.4%
same,"viability, T/C",[26],92.7%
same,"viability, T/C",[27],112%
same,"viability, T/C",[28],85.3%
same,"viability, T/C",[29],68.6%
same,"viability, T/C",[30],23.2%
same,"viability, T/C",[31],93.4%
same,"viability, T/C",[32],91.4%
same,"viability, T/C",[33],114%
same,"viability, T/C",[34],88.8%
same,"viability, T/C",[35],66.7%
same,"viability, T/C",[36],34.9%
